Where a name gives a salt, the structure may show the parent alone. Read-outs that look alike come from different tables or passages of the source.
Key:
Assay type in all cases: biochemical
[1] = target: T1, Recombinant Human Anaplastic Lymphoma Kinase (Homo sapiens, UniProt Q9UM73); assay: ALK HTRF kinase assay
T1 construct: purchased Invitrogen, Carlsbad, Calif
In short: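 Recombinant human ALK with biotinylated peptide substrate; phosphorylation detected by HTRF using Eu-labelled anti-phosphotyrosine antibody and streptavidin-allophycocyanin. IC50 from a sigmoidal fit with Hill slope.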

[2] = target: T2, human JAK1 (a.a. 837-1142) (Homo sapiens, UniProt P23458); assay: In vitro JAK kinase assay (HTRF, phosphorylation of a biotinylated peptide), JAK1; details: read-out: JAK1 IC50
T2 construct: human JAK1 (a.a. 837-1142); His tag (N); made in house; host or cells: insect cells (baculovirus)
In short: (§1)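 Kinase activity was measured as phosphorylation of a biotinylated peptide, with ATP at 90 μM for JAK1, 30 μM for JAK2 and 3 μM for JAK3. Reactions ran 1 hr at room temperature, were stopped with EDTA plus SA-APC and Eu-Py20, and were read by HTRF after 40 minutes of antibody binding.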

[3] = target: TYK2 (Homo sapiens, UniProt P29597); assay: TYK2 kinase inhibition (Table A1)
[4] = target: T3, human JAK3 (a.a. 781-1124) (Homo sapiens, UniProt P52333); assay: In vitro JAK kinase assay (HTRF, phosphorylation of a biotinylated peptide), JAK3
T3 construct: JAK3 (a.a. 781-1124); His tag (N); made in house; host or cells: insect cells (baculovirus)
In short: as §1

[5] = target: T4, human JAK2 (a.a. 828-1132) (Homo sapiens, UniProt O60674); assay: In vitro JAK kinase assay (HTRF, phosphorylation of a biotinylated peptide), JAK2
T4 construct: JAK2 (a.a. 828-1132); His tag (N); made in house; host or cells: insect cells (baculovirus)
In short: as §1

[6] = compound at a concentration of 500 nM or 1 mM (not specified), cells shown as percentage
[7] = compound at 500 nM or 1 mM, 90 μM ATP
[8] = method AA1 (90 μM ATP) or AA2 (1000 μM ATP), not stated per value
[9] = method AA1 (3 μM ATP) or AA2 (1000 μM ATP), not stated per value
[10] = method AA1 (30 μM ATP) or AA2 (1000 μM ATP), not stated per value
[11] = Table B1, cells without percent sign

T4 sequence (O60674 828-1132): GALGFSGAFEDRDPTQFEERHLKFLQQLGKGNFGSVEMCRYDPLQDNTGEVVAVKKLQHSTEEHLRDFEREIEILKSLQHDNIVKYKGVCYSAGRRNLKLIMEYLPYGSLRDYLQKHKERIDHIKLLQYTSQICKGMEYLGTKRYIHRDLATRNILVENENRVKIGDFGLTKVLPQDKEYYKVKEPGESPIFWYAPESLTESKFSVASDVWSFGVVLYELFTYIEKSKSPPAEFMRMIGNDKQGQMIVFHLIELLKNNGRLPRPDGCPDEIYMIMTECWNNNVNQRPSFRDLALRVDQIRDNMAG
TYK2, sequence (P29597 whole entry): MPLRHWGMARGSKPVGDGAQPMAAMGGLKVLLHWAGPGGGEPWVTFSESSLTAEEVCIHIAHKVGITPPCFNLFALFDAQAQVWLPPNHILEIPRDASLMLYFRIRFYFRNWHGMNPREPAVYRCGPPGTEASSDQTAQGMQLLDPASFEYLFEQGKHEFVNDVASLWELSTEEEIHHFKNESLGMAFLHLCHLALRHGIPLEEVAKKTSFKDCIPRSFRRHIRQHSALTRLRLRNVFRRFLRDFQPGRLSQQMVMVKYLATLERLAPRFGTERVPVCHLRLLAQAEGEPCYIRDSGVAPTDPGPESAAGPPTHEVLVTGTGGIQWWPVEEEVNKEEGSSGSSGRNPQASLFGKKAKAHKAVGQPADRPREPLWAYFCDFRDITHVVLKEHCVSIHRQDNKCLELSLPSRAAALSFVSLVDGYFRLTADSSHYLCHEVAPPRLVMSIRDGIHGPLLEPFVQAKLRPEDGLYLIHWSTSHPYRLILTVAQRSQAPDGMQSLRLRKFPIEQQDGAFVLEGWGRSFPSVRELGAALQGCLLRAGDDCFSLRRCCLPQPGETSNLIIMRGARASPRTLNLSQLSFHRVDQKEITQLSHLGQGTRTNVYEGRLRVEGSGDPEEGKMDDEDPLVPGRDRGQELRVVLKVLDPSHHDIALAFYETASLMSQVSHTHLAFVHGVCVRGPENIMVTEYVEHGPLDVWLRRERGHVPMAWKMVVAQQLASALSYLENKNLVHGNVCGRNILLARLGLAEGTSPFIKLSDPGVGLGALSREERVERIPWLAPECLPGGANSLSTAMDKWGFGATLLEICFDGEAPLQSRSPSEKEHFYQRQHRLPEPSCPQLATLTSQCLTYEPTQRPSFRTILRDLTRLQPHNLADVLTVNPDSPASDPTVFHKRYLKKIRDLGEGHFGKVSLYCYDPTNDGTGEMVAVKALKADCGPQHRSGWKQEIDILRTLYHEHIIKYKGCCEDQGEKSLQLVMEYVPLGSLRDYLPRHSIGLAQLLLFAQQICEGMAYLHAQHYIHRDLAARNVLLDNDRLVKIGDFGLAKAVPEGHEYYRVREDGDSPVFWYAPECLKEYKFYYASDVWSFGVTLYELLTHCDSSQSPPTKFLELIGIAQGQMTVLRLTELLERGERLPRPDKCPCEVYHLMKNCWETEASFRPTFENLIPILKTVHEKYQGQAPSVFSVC
T1 sequence (Q9UM73 19-1620): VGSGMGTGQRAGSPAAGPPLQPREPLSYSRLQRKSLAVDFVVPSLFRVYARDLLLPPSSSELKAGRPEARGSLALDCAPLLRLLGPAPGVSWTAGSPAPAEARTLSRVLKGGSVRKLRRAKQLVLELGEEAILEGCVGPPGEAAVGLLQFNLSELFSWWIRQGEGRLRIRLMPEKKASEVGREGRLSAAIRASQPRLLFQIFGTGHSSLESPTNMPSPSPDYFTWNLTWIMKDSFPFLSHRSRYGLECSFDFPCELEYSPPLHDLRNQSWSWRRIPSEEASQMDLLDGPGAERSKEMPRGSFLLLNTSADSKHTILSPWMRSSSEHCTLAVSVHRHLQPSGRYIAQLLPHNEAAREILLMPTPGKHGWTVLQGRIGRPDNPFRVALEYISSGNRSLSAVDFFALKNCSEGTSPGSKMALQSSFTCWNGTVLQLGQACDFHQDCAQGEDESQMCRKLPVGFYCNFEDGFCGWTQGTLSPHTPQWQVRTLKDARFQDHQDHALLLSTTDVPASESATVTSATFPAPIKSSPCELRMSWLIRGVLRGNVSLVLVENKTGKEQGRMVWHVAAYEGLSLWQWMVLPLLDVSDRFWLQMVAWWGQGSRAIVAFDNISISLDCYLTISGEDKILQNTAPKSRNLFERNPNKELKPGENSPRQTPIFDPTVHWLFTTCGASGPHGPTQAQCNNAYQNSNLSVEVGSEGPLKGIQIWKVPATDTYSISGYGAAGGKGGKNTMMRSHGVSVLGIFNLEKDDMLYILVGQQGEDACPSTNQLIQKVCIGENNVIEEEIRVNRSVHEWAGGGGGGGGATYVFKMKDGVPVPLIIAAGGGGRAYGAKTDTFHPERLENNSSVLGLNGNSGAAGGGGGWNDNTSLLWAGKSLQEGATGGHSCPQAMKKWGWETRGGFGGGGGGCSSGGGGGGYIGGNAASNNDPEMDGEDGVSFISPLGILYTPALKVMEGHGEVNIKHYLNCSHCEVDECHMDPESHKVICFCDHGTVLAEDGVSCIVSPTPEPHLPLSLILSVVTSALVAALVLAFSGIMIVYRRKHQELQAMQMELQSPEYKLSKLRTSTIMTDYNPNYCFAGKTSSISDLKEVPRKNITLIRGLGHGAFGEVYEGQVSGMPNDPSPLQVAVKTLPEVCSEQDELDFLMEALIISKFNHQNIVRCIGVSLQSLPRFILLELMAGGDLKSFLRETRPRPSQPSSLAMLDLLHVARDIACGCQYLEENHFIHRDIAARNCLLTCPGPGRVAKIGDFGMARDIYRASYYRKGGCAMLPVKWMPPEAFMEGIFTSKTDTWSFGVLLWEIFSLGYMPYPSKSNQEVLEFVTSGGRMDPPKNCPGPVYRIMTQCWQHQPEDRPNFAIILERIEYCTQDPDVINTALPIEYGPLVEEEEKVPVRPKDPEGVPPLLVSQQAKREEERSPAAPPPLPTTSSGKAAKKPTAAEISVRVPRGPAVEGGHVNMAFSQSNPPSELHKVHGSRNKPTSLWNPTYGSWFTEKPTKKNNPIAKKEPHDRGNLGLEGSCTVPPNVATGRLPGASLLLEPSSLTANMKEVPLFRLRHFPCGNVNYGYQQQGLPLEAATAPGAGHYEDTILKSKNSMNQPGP
T3 sequence (P52333 781-1124): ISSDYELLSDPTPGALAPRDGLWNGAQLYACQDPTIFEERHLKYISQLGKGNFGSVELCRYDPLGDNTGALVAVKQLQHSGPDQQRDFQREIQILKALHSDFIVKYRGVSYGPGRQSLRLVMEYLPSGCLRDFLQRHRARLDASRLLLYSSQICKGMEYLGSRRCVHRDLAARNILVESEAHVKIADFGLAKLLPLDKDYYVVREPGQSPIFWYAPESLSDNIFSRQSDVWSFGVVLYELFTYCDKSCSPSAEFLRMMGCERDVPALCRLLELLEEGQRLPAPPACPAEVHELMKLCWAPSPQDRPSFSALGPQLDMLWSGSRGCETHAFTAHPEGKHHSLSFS
T2 sequence (P23458 849-1154): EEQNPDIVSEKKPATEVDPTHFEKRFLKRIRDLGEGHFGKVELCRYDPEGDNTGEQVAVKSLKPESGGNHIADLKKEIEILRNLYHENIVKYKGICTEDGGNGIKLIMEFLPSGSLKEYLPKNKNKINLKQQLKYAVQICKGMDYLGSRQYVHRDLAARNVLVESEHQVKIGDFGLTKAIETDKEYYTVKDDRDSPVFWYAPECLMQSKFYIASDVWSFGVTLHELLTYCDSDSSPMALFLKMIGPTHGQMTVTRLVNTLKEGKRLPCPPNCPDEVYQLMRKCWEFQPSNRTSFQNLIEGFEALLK

Row | SMILES | IC50 ([2]; Table B1) | IC50 ([3]; Table B1) | IC50 ([4]; Table B1) | IC50 ([5]; Table B1) | ALK % of inhibition at a concentration of 500 nM or 1 mM [1, 7] | IC50 [2, 8] | IC50 [3] | IC50 [4, 9] | IC50 [5, 10] | other results
1 | CNC(=O)Nc1ccc2cc1CCc1cncc(c1)Nc1ncc(Cl)c(n1)N2 [Example B135, N-[6-Chloro-2,4,8,18,22-pentaazatetracyclo[14.3.1.1(3,7).1(9,13)]docosa-1(20),3(22),4,6,9(21),10,12,16,18-nonaen-12-yl]-N′-methylurea bis(trifluoroacetate)] | 0.69 nM | 6.8 nM | 30 nM | 4.3 nM | – | – | – | – | – | ALK % of inhibition at a concentration of 500 nM or 1 mM [1, 6]: 13%
2 | Cc1ncoc1C(=O)N1CCC(CC(=O)Nc2ccc3cc2CCc2cncc(c2)Nc2ncc(Cl)c(n2)N3)CC1 [Example A132, N-[6-Chloro-2,4,8,18,22-pentaazatetracyclo[14.3.1.1(3,7).1(9,13)]docosa-1(20),3(22),4,6,9(21),10,12,16,18-nonaen-12-yl]-2-{1-[(4-methyl-1,3-oxazol-5-yl)carbonyl]piperidin-4-yl}acetamide bis(trifluoroacetate)] | – | – | – | – | 23% | 7.9 nM | 17 nM | 248 nM | 18 nM | –
3 | CC(Oc1ccc2cc1CCc1cccc(c1)Nc1ncc(Cl)c(n1)N2)C(=O)Nc1ccccc1 (stereo not shown) [Example A16, 2-{[6-Chloro-2,4,8,22-tetraazatetracyclo[14.3.1.1(3,7).1(9,13)]docosa-1(20),3(22),4,6,9(21),10,12,16,18-nonaen-12-yl]oxy}-N-phenylpropanamide trifluoroacetate] | – | – | – | – | 21% | 12 nM | 32 nM | 60 nM | 10 nM | –
4 | CN(C)S(=O)(=O)N1CCC(CC(=O)Nc2ccc3cc2CCc2cncc(c2)Nc2ncc(Cl)c(n2)N3)CC1 [Example A96, N-[6-Chloro-2,4,8,18,22-pentaazatetracyclo[14.3.1.1(3,7).1(9,13)]docosa-1(20),3(22),4,6,9(21),10,12,16,18-nonaen-12-yl]-2-{1-[(dimethylamino)sulfonyl]piperidin-4-yl}acetamide bis(trifluoroacetate)] | – | – | – | – | 26% | 4.5 nM | 11 nM | 80 nM | 6.6 nM | –
5 | O=C(Nc1ccc2cc1CCc1cccc(c1)Nc1ncc(Cl)c(n1)N2)C1CCCC1 [Example B60, N-[6-Chloro-2,4,8,22-tetraazatetracyclo[14.3.1.1(3,7).1(9,13)]docosa-1(20), 3(22),4,6,9(21),10,12,16,18-nonaen-12-yl]cyclopentanecarboxamide trifluoroacetate] | 22 nM | 47 nM | 20 nM | 8.4 nM | – | – | – | – | – | IC50 [1, 11]: > 1000 nM
6 | Clc1cnc2nc1Nc1cccc(c1)CCc1cccc(c1)N2 [Example A2, 6-Chloro-2,4,8,22-tetraazatetracyclo[14.3.1.1(3,7).1(9,13)]docosa-1(20),3(22),4,6,9(21),10,12,16,18-nonaene trifluoroacetate] | – | – | – | – | – | 12 nM | 35 nM | 26 nM | 9.3 nM | IC50 ([1]; 90 μM ATP): 657 nM
7 | O=C(c1cc2cc(c1)OCCSc1cccc(c1)Nc1nc(ncc1Cl)N2)N1CCN(c2ccccc2)CC1 [Example D53, 6-Chloro-20-[(4-phenylpiperazin-1-yl)carbonyl]-17-oxa-14-thia-2,4,8,24-tetraazatetracyclo[16.3.1.1(3,7).1(9,13)]tetracosa-1(22),3(24),4,6,9(23),10,12,18,20-nonaene bis(trifluoroacetate)] | – | – | – | – | – | – | – | – | – | IC50 ([1]; Table D1, 90 μM ATP): 1150 nM; IC50 ([2]; Table D1): 27 nM; IC50 ([3]; Table D1): 28 nM; IC50 ([4]; Table D1): 273 nM; IC50 ([5]; Table D1): 34 nM
8 | O=C(c1coc(Nc2ccc3cc2CCc2cccc(c2)Nc2ncc(Cl)c(n2)N3)n1)N1CCN2CCCC2C1 (stereo not shown) [Example B296, 6-Chloro-N-[4-(hexahydropyrrolo[1,2-a]pyrazin-2(1H)-ylcarbonyl)-2,3-oxazol-2-yl]-2,4,8,22-tetraazatetracyclo[14.3.1.1(3,7).1(9,13)]docosa-1(20),3(22),4,6,9(21),10,12,16,18-nonaen-12-amine bis(trifluoroacetate)] | 8.3 nM | 48 nM | > 200 nM | 26 nM | – | – | – | – | – | ALK % of inhibition at a concentration of 500 nM or 1 mM [1, 6]: 33%
9 | Cc1noc(C)c1C(=O)N1CCC(CC(=O)Nc2ccc3cc2CCc2cncc(c2)Nc2ncc(Cl)c(n2)N3)CC1 [Example A156, N-[6-Chloro-2,4,8,18,22-pentaazatetracyclo[14.3.1.1(3,7).1(9,13)]docosa-1(20),3(22),4,6,9(21),10,12,16,18-nonaen-12-yl]-2-{1-[(3,5-dimethylisoxazol-4-yl)carbonyl]piperidin-4-yl}acetamide bis(trifluoroacetate)] | – | – | – | – | 17% | 96 nM | 2500 nM | > 10000 nM | 917 nM | –
10 | N#Cc1ccccc1NC(=O)N1CCC(CC(=O)Nc2ccc3cc2CCc2cncc(c2)Nc2ncc(Cl)c(n2)N3)CC1 [Example A141, 4-(2-{[6-Chloro-2,4,8,18,22-pentaazatetracyclo[14.3.1.1(3,7).1(9,13)]docosa-1(20),3(22),4,6,9(21),10,12,16,18-nonaen-12-yl]amino}-2-oxoethyl)-N-(2-cyanophenyl)piperidine-1-carboxamide bis(trifluoroacetate)] | – | – | – | – | 19% | 3.5 nM | 13 nM | > 100 nM | 12 nM | –
11 | O=C(Nc1ccc2cc1CCc1cccc(c1)Nc1ncc(Cl)c(n1)N2)C1CC1 [Example B27, N-[6-Chloro-2,4,8,22-tetraazatetracyclo[14.3.1.1(3,7).1(9,13)]docosa-1(20), 3(22),4,6,9(21),10,12,16,18-nonaen-12-yl]cyclopropanecarboxamide trifluoroacetate] | 5.2 nM | 15 nM | 8.5 nM | 3.7 nM | – | – | – | – | – | IC50 [1, 11]: 880 nM
12 | O=C(NCCN1CCNCC1)Nc1ccc2cc1CCc1cccc(c1)Nc1ncc(Cl)c(n1)N2 [Example B260, N-[6-Chloro-2,4,8,22-tetraazatetracyclo[14.3.1.1(3,7).1(9,13)]docosa-1(20),3(22),4,6,9(21),10,12,16,18-nonaen-12-yl]-N′-(2-piperazin-1-ylethyl)urea trihydrochloride] | 4.7 nM | 20 nM | 51 nM | 9.9 nM | – | – | – | – | – | ALK % of inhibition at a concentration of 500 nM or 1 mM [1, 6]: 26%
13 | O=C(Nc1ccc2cc1CCc1cncc(c1)Nc1ncc(Cl)c(n1)N2)N[C@H]1CCN(C(=O)c2ccn[nH]2)C1 [Example B268, N-[6-Chloro-2,4,8,18,22-pentaazatetracyclo[14.3.1.1(3,7).1(9,13)]docosa-1(20),3(22),4,6,9(21),10,12,16,18-nonaen-12-yl]-N′-[(3S)-1-(1H-pyrazol-5-ylcarbonyl)pyrrolidin-3-yl]urea bis(trifluoroacetate)] | 9.8 nM | 541 nM | > 10000 nM | 273 nM | – | – | – | – | – | ALK % of inhibition at a concentration of 500 nM or 1 mM [1, 6]: 16%
14 | O=C(CC1CCN(c2ccccc2)CC1)Nc1ccc2cc1CCc1cncc(c1)Nc1ncc(Cl)c(n1)N2 [Example A219, N-[6-Chloro-2,4,8,18,22-pentaazatetracyclo[14.3.1.1(3,7).1(9,13)]docosa-1(20),3(22),4,6,9(21),10,12,16,18-nonaen-12-yl]-2-(1-phenylpiperidin-4-yl)acetamide tris(trifluoroacetate)] | – | – | – | – | 20% | 12 nM | 180 nM | > 200 nM | 90 nM | –
15 | NS(=O)(=O)N1CCC(CC(=O)Nc2ccc3cc2CCc2cncc(c2)Nc2ncc(Cl)c(n2)N3)CC1 [Example A78, 2-[1-(Aminosulfonyl)piperidin-4-yl]-N-[6-chloro-2,4,8,18,22pentaazatetracyclo[14.3.1.1(3,7).1(9,13)]docosa-1(20),3(22),4,6,9(21),10,12,16,18-nonaen-12-yl]acetamide bis(trifluoroacetate)] | – | – | – | – | 39% | 0.4 nM | 0.3 nM | 12 nM | 0.3 nM | –
16 | O=S(=O)(Nc1ccc2cc1CCc1cccc(c1)Nc1ncc(Cl)c(n1)N2)c1cccc(Cl)c1 [Example B138, 3-Chloro-N-[6-chloro-2,4,8,22-tetraazatetracyclo[14.3.1.1(3,7).1(9,13)]docosa-1(20),3(22),4,6,9(21),10,12,16,18-nonaen-12-yl]benzenesulfonamide trifluoroacetate] | 0.25 nM | 0.35 nM | 0.33 nM | 0.1 nM | – | – | – | – | – | IC50 [1, 11]: 100 nM
17 | Clc1cnc2nc1Nc1cccc(c1)COc1cccc(c1)N2 [Example D6, 6-Chloro-15-oxa-2,4,8,22-tetraazatetracyclo[14.3.1.1(3,7).1(9,13)]docosa-1(20),3(22),4,6,9(21),10,12,16,18-nonaene trifluoroacetate] | – | – | – | – | – | – | – | – | – | IC50 ([1]; Table D1, 90 μM ATP): 4190 nM; IC50 ([2]; Table D1): 36 nM; IC50 ([3]; Table D1): 16 nM; IC50 ([4]; Table D1): > 100 nM; IC50 ([5]; Table D1): 37 nM
